What was measured:
[1] = not given; remark: listed apart in the source
[2] = method code SF-AS, from DOI: 10.1111/j.2042-7158.1989.tb06484.x, PMID: 2570835
[3] = not given; remark: listed apart in the source
[4] = method code SF-HPLC, from DOI: 10.1007/bf03246517
[5] = method code SF, from DOI: 10.1248/yakushi1947.99.3_235; conditions: pH 11.0
[6] = method code SF, from DOI: 10.1021/js9601804, PMID: 9344176; conditions: pH 8.0
[7] = not given; remark: listed apart in the source
[8] = method code SF, from DOI: 10.1007/s00253-012-4358-8, PMID: 23081771; conditions: pH 7.0
[9] = method code SF-AS, from DOI: 10.1016/0006-2952(75)90156-2, PMID: 235934; conditions: pH 7.4
[10] = not given; remark: listed apart in the source
[11] = method code SF-HPLC, from DOI: 10.1002/ps.2780370106; conditions: pH 0.0
[12] = method code SF-RC, from DOI: 10.1002/qsar.19880070404; conditions: pH 0.0
[13] = method code SF-RC,FL, from DOI: 10.1016/0006-2952(81)90006-x, PMID: 6456004
[14] = method code SF-ESR, from DOI: 10.1111/1523-1747.ep12319780, PMID: 2551971; conditions: pH 7.0
[15] = not given; remark: listed apart in the source
[16] = method code SF-HPLC, from PMID: 1880579; conditions: pH 7.4
[17] = method code SF-CR+AS, from Korenman, Y. (1973). Extraction of guaiacol from aqueous solutions. Zh. Prikl. Khim., 46(6)1391-1394.; conditions: pH 2.0
[18] = pH 1.0
[19] = method code SF-AS, from PMID: 2748530
[20] = not given; remark: listed apart in the source
[21] = method code SF-RC, from DOI: 10.1016/0006-2952(81)90006-x, PMID: 6456004
[22] = method code SF-AS, from DOI: 10.1016/0022-1902(68)80266-0; conditions: pH 4.0
[23] = not given; remark: listed apart in the source
[24] = not given; remark: listed apart in the source
[25] = not given; remark: listed apart in the source
[26] = not given; remark: listed apart in the source
[27] = method code SF, from DOI: 10.1248/yakushi1947.93.11_1452, PMID: 4273378
[28] = method code SF, from Kruglik, P.; Leschev, M.; Rakhman'ko, M.; Bubel, N.; Asratyan, V. (1991). Extraction of 1,2,4-triazole and its derivatives by organic solvents. 64(8)1721-1724.
[29] = method code SF-AS, from DOI: 10.1016/s0022-3565(25)24763-2, PMID: 2019981; conditions: pH 7.4
[30] = method code SF, from DOI: 10.1246/bcsj.60.4357
[31] = method code SF, from DOI: 10.1248/cpb.42.1525, PMID: 7923475
[32] = method code SF, from DOI: 10.1002/jps.2600641111, PMID: 1195110; conditions: pH 7.4
[33] = method code SF-AS, from Korenman, Y.; Sotnikova, G. (1975). Extraction of vanillins from aqueous solutions. Zh. Prikl. Khim., 48(1)188-191.
[34] = method code SF, from DOI: 10.1021/jm00111a036, PMID: 2066990
[35] = method code SF-AS, from DOI: 10.1016/0014-2999(86)90191-3, PMID: 3780854; conditions: pH 7.4
[36] = method code SF, from PMID: 15170; conditions: pH 5.0
[37] = not given; remark: listed apart in the source
[38] = method code SF, from DOI: 10.1080/09553009014551091, PMID: 1970998; conditions: pH 7.4
[39] = method code SF, from DOI: 10.1007/bf00253009, PMID: 7273265; conditions: pH 7.4
[40] = method code SF-GLC, from Park, Y.; Park, S. (2000). Determination and prediction of octanol/water partition coefficients and air-water partition coefficients for environmental toxic chemicals. 11(7)773-779.
[41] = not given; remark: listed apart in the source
[42] = not given; remark: listed apart in the source
[43] = method code SF-HPLC, from DOI: 10.1002/jps.2600810507, PMID: 1403673
[44] = not given; remark: listed apart in the source
[45] = method code SF-AS, from DOI: 10.1021/jm00304a030, PMID: 5793164; conditions: pH 7.4
[46] = method code SF-AS, from Korenman, I.; Nefedova, E.; Dyukova, I. (1977). Extraction of picramic acid. Int J Clin Pharmacol Ther Toxicol, 51(5)734-735.; conditions: pH 7.4
[47] = method code SF, from DOI: 10.1016/0043-1354(79)90201-x
[48] = method code SF-AS, from DOI: 10.1080/09553007214550551, PMID: 4537457
[49] = not given; remark: listed apart in the source
[50] = method code SF-AS, from DOI: 10.1016/s0006-3495(76)85671-8, PMID: 1247644; conditions: pH 8.0
[51] = method code SF, from PMID: 8265709; conditions: pH 7.4

CCC1C(=O)NC(=O)N(C)C1=O (configuration not stated)
logP: 0.15

O=C(Cn1ccnc1[N+](=O)[O-])NCC(F)(F)C(F)(F)F
logP [1]: 0.76

O=c1[nH][nH]c(=O)c2ccccc12
logP [2]: 0.11

CCC(CC)C(=O)NC(N)=O
logP [3]: 0.91

OCCc1ccc(O)cc1
logP [4]: 0.69

OCCC1CCCCN1 (configuration not stated)
logD [5]: 0.11

O=C1COc2ccccc2N1
logD [6]: 1.31

Cc1ccccc1C
logP [7]: 3.29

C=Cc1ccc(O)cc1
logD [8]: 2.36

CCOc1ccc([N+](=O)[O-])cc1
logD [9]: 2.53

O=C(NCCO[N+](=O)[O-])c1cccnc1
logP [10]: -1.02

Cc1c(F)c(F)c(C(=O)O)c(F)c1F
logD [11]: 3.15

O=C(O)Cc1ccccc1I
logD [12]: 2.33

NCCc1ccc(O)cc1
logP [13]: -0.24

CC1(C)COC(C)(C)N1O
logD [14]: 0.48

CC(C)(C)c1cn2nc(S(N)(=O)=O)sc2n1
logP [15]: 2.15

O=[N+]([O-])c1nccn1C1OC(CI)C(O)C1O (configuration not stated)
logD [16]: 0.7

COc1ccccc1O
logD [17]: 1.35

O=C(O)Cc1c(Cl)ccc(Cl)c1Cl
logD [18]: 3.2

O=[N+]([O-])c1nccn1CC(O)COCC(F)(F)F (configuration not stated)
logP [19]: 0.46

Cc1cccc(O)c1
logP [20]: 2.01

NCCc1ccccc1
logP [21]: 1.16

O=C(CC(=O)C(F)(F)F)c1cccs1
logD [22]: 1.46

CCOc1ccccc1O
logP [23]: 1.91

CCCCCCC
logP [24]: 4.48

O=[N+]([O-])c1nccn1[C@H]1O[C@H](CF)[C@@H](O)[C@@H]1O
logP [25]: 0.04

CCCn1cnc2c(N)ncnc21
logP [26]: 0.74

CNC(=O)c1cccnc1
logP [27]: 0

CC(C)CCn1cnc([N+](=O)[O-])n1
logP [28]: 1.26

CCn1cccc(O)c1=O
logD [29]: 0.08

CCc1cc([N+](=O)[O-])cc([N+](=O)[O-])c1O
logP [30]: 2.67

COC(=O)c1ccccc1
logP [31]: 2.09

CC(=O)NCCn1c([N+](=O)[O-])cnc1C
logD [32]: -0.47

COc1ccc(C=O)cc1O
logP [33]: 0.97

O=[N+]([O-])c1nccn1CC(O)C/C=C/I (configuration not stated)
logP [34]: 0.4

COc1noc2c1CN(C)CC2
logD [35]: 0.4

CCC1(CC)C(=O)NC(=O)NC1=O
logD [36]: 0.71

O=[N+]([O-])c1nccn1C1OCC(I)CC1F (configuration not stated)
logP [37]: 0.8

O=[N+]([O-])c1nccn1COC(CO)CO
logD [38]: -1.03

O=C(Cn1ccnc1[N+](=O)[O-])N(CO)CO
logD [39]: -1.59

CC(=O)OCCC(C)C
logP [40]: 2.55

O=C1NC(=O)c2ccccc21
logP [41]: 1.04

O=S(=O)(CS(=O)(=O)C(F)(F)F)c1ccc(Cl)c(Cl)c1
logP [42]: 1.7

O=C(O)c1ccc(C(=O)O)cc1
logP [43]: 1.68

CO[C@@H]([C@H](O)[C@H](O)CO)[C@@H](O)C=O
logP [44]: -3

Brc1ccc2[nH]ccc2c1
logD [45]: 3

CC(C)c1cnc([N+](=O)[O-])n1C
logD [46]: 1.09

NC(=O)COCc1ccco1
logP [47]: -0.11

CC(=O)c1ccc(Cl)cc1
logP [48]: 2.35

COc1nc(C(Cl)(Cl)Cl)c(Cl)c(OC)c1Cl
logP [49]: 5.48

Cc1nc2c(Cl)c(Cl)c(Cl)c(Cl)c2[nH]1
logD [50]: 2.83

Cn1c(=O)c2[nH]cnc2n(C)c1=O
logD [51]: -0.18

Source: the SangsterLogP compilation
